Experimental data taken from US9108903B2, “Amides as modulators of sodium channels” (VERTEX PHARMACEUTICALS INCORPORATED, priority 2013, dated 2015).

Target: human Nav1.8 (Homo sapiens (Human), UniProt Q9Y5Y9)
Experiment: E-VIPR optical membrane potential assay with electrical stimulation
Type: cell-based
Conditions: HEK cells expressing human Nav1.8
Source text: Assays for Detecting and Measuring NaV Inhibition Properties of Compounds E-VIPR Optical Membrane Potential Assay Method with Electrical Stimulation
Sodium channels are voltage-dependent proteins that can be activated by inducing membrane voltage changes by applying electric fields. The electrical stimulation instrument and methods of use are described in Ion Channel Assay Methods PCT/US01/21652, herein incorporated by reference and are referred to as E-VIPR. The instrument comprises a microtiter plate handler, an optical system for exciting the coumarin dye while simultaneously recording the coumarin and oxonol emissions, a waveform generator, a current- or voltage-controlled amplifier, and a device for inserting electrodes in well. Under integrated computer control, this instrument passes user-programmed electrical stimulus protocols to cells within the wells of the microtiter plate.
24 hours before the assay on E-VIPR, HEK cells expressing human Nav1.8 were seeded in 384-well poly-lysine coated plates at 15,000-20,000 cells per well. HEK cells were grown in media (exact composition is specific to each cell type and NaV subtype) supplemented with 10% FBS (Fetal Bovine Serum, qualified; GibcoBRL #16140-071) and 1% Pen-Strep (Penicillin-Streptomycin; GibcoBRL #15140-122). Cells were grown in vented cap flasks, in 90% humidity and 5% CO2.
100 mg/mL Pluronic F-127 (Sigma #P2443), in dry DMSO
Compound Plates: 384-well round bottom plate, e.g. Corning 384-well Polypropylene Round Bottom #3656
Cell Plates: 384-well tissue culture treated plate, e.g. Greiner #781091-1B
Bath1 buffer: Glucose 10 mM (1.8 g/L), Magnesium Chloride (Anhydrous), 1 mM (0.095 g/L), Calcium Chloride, 2 mM (0.222 g/L), HEPES 10 mM (2.38 g/L), Potassium Chloride, 4.5 mM (0.335 g/L), Sodium Chloride 160 mM (9.35 g/L).
Hexyl Dye Solution: Bath1 Buffer+0.5% β-cyclodextrin (make this prior to use, Sigma #C4767), 8 μM CC2-DMPE+2.5 μM DiSBAC6(3). To make the solution added volume of 10% Pluronic F127 stock equal to volumes of CC2-DMPE+DiSBAC6(3). The order of preparation was first mix Pluronic and CC2-DMPE, then added DiSBAC6(3) while vortexing, then added Bath1+β-Cyclodextrin.
1) Pre-spotted compounds (in neat DMSO) into compound plates. Vehicle control (neat DMSO), the positive control (20 mM DMSO stock tetracaine, 125 μM final in assay) and test compounds were added to each well at 160× desired final concentration in neat DMSO. Final compound plate volume was 80 μL (80-fold intermediate dilution from 1 μL DMSO spot; 160-fold final dilution after transfer to cell plate). Final DMSO concentration for all wells in assay was 0.625%.
2) Prepared Hexyl Dye Solution.
3) Prepared cell plates. On the day of the assay, medium was aspirated and cells were washed three times with 100 μL of Bath1 Solution, maintaining 25 μL residual volume in each well.
4) Dispensed 25 μL per well of Hexyl Dye Solution into cell plates. Incubated for 20-35 minutes at room temp or ambient conditions.
5) Dispensed 80 μL per well of Bath1 into compound plates. Acid Yellow-17 (1 mM) was added and Potassium Chloride was altered from 4.5 to 20 mM depending on the NaV subtype and assay sensitivity.
6) Washed cell plates three times with 100 μL per well of Bath1, leaving 25 μL of residual volume. Then transfered 25 uL per well from Compound Plates to Cell Plates. Incubated for 20-35 minutes at room temp/ambient condition.
7) Read Plate on E-VIPR. Used the current-controlled amplifier to deliver stimulation wave pulses for 10 seconds and a scan rate of 200 Hz. A pre-stimulus recording was performed for 0.5 seconds to obtain the un-stimulated intensities baseline. The stimulatory waveform was followed by 0.5 seconds of post-stimulation recording to examine the relaxation to the resting state.
Data was analyzed and reported as normalized ratios of emission intensities measured in the 460 nm and 580 nm channels. The response as a function of time was reported as the ratios obtained using the following formula: […]

Chain of human Nav1.8 (Q9Y5Y9 whole entry): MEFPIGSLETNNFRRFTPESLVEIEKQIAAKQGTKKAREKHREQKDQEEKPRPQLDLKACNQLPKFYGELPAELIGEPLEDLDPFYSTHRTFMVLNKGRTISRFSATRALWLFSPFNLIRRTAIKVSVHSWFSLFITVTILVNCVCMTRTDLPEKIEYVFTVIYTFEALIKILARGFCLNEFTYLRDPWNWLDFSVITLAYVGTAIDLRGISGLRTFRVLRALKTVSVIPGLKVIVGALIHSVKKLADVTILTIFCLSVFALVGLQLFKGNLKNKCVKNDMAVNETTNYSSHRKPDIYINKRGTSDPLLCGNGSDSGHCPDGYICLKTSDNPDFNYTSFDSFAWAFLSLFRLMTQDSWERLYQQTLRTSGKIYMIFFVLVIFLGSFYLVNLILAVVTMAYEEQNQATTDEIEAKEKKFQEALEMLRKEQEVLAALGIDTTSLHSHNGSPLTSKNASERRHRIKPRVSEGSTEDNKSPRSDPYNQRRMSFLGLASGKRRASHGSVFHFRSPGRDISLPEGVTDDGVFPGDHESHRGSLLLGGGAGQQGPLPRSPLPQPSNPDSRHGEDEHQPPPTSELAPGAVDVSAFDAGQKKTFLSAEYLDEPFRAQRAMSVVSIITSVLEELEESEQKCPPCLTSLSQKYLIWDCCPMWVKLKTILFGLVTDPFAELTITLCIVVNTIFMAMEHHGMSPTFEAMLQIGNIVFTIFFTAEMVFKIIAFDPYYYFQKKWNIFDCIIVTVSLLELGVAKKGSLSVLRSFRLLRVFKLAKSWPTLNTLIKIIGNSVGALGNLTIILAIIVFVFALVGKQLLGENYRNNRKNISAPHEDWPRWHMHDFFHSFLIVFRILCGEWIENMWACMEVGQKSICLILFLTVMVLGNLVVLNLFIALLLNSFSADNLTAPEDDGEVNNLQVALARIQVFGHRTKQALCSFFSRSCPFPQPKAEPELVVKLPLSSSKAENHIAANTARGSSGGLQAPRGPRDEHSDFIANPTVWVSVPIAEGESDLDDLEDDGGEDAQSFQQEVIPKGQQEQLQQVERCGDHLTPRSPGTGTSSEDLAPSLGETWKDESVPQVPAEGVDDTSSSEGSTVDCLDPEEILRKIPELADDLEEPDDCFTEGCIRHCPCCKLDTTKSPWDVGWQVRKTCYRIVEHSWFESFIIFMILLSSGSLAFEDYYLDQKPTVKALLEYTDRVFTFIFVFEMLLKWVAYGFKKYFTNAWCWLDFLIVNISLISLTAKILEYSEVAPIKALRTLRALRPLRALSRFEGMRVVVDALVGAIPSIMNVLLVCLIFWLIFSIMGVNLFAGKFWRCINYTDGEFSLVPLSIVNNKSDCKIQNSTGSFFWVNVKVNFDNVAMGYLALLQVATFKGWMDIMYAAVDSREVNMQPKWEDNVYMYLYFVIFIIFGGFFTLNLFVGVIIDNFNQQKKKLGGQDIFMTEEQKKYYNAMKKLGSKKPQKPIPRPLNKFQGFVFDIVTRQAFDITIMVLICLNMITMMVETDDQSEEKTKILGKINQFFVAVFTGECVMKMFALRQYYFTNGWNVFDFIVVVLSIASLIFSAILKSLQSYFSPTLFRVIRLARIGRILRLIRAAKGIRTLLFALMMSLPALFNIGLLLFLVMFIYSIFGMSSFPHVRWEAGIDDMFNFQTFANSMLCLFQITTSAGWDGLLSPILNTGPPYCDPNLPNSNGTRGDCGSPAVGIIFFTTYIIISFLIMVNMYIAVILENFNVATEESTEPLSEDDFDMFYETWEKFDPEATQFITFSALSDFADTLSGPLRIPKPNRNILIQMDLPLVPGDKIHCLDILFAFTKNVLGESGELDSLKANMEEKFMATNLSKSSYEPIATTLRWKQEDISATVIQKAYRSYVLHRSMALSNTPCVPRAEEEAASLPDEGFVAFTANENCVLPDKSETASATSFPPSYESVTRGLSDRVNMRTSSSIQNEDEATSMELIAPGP

Row | Compound | IC50 [nM]
1 | O=C(O)c1ccc(NC(=O)c2ccc(C(F)(F)F)cc2Oc2ccc(F)cc2Cl)cc1 [Compound 4, 4-(2-(2-chloro-4-fluorophenoxy)-4-(trifluoromethyl)benzamido)benzoic acid] | 58
2 | Cc1cc(F)ccc1Oc1cc(C(F)(F)F)ccc1C(=O)Nc1ccc(C(=O)O)cc1 [Compound 5, 4-(2-(4-fluoro-2-methylphenoxy)-4-(trifluoromethyl)benzamido)benzoic acid] | 60
3 | O=C(O)c1ccc(NC(=O)c2ccc(C(F)(F)F)cc2Oc2ccc(F)cc2F)cc1 [Compound 6, 4-(2-(2,4-difluorophenoxy)-4-(trifluoromethyl)benzamido)benzoic acid] | 145
4 | O=C(O)c1ccc(NC(=O)c2c(Oc3ccc(F)cc3F)cc(C(F)(F)F)cc2C(F)(F)F)cc1 [Compound 8, 4-(2-(2,4-difluorophenoxy)-4,6-bis(trifluoromethyl)benzamido)benzoic acid] | 405
5 | Cc1cc(F)ccc1Oc1cc(C(F)(F)F)cc(C(F)(F)F)c1C(=O)Nc1ccc(C(=O)O)cc1 [Compound 9, 4-(2-(4-fluoro-2-methylphenoxy)-4,6-bis(trifluoromethyl)benzamido)benzoic acid] | 130
6 | COc1cc(F)ccc1Oc1cc(C(F)(F)F)cc(C(F)(F)F)c1C(=O)Nc1ccc(C(=O)O)cc1 [Compound 10, 4-(2-(4-fluoro-2-methoxyphenoxy)-4,6-bis(trifluoromethyl)benzamido)benzoic acid] | 37
7 | O=C(O)c1ccc(NC(=O)c2c(Oc3ccc(F)cc3)cc(C(F)(F)F)cc2C(F)(F)F)cc1 [Compound 11, 4-(2-(4-fluorophenoxy)-4,6-bis(trifluoromethyl)benzamido)benzoic acid] | 305
8 | O=C(O)c1ccc(NC(=O)c2cc(Cl)c(Cl)cc2Oc2ccc(F)cc2)cc1 [Compound 13, 4-(4,5-dichloro-2-(4-fluorophenoxy)benzamido)benzoic acid] | 58
9 | O=C(O)c1ccc(NC(=O)c2cc(Cl)c(Cl)cc2Oc2ccccc2)cc1 [Compound 15, 4-(4,5-dichloro-2-phenoxybenzamido)benzoic acid] | 290
10 | COc1ccc(Oc2cc(Cl)c(Cl)cc2C(=O)Nc2ccc(C(=O)O)cc2)c(F)c1 [Compound 16, 4-(4,5-dichloro-2-(2-fluoro-4-methoxyphenoxy)benzamido)benzoic acid] | 115
11 | O=C(O)c1ccc(NC(=O)c2cc(Cl)c(Cl)cc2Oc2ccc(OCC(F)(F)F)cc2)cc1 [Compound 17, 4-(4,5-dichloro-2-(4-(2,2,2-trifluoroethoxy)phenoxy)benzamido)benzoic acid] | 62
12 | O=C(O)c1ccc(NC(=O)c2cc(Cl)c(Cl)cc2Oc2ccccc2OC(F)F)cc1 [Compound 19, 4-(4,5-dichloro-2-(2-(difluoromethoxy)phenoxy)benzamido)benzoic acid] | 66
13 | COc1ccc(Oc2cc(Cl)c(Cl)cc2C(=O)Nc2ccc(C(=O)O)cc2)cc1F [Compound 22, 4-(4,5-dichloro-2-(3-fluoro-4-methoxyphenoxy)benzamido)benzoic acid] | 78
14 | O=C(O)c1ccc(NC(=O)c2cc(Cl)c(Cl)cc2Oc2ccc(F)cc2F)cc1 [Compound 24, 4-(4,5-dichloro-2-(2,4-difluorophenoxy)benzamido)benzoic acid] | 53
15 | COc1ccc(Oc2cc(Cl)c(Cl)cc2C(=O)Nc2ccc(C(=O)O)cc2)c(Cl)c1 [Compound 25, 4-(4,5-dichloro-2-(2-chloro-4-methoxyphenoxy)benzamido)benzoic acid] | 92
16 | Cc1cc(F)ccc1Oc1ccc(C(F)(F)F)cc1C(=O)Nc1ccc(C(=O)O)cc1 [Compound 29, 4-(2-(4-fluoro-2-methylphenoxy)-5-(trifluoromethyl)benzamido)benzoic acid] | 245
17 | O=C(O)c1ccc(NC(=O)c2cc(Cl)c(Cl)cc2Oc2ccccc2)cn1 [Compound 33, 5-(4,5-dichloro-2-phenoxybenzamido)picolinic acid] | 190

Further compounds by falling IC50, results first:

Row | IC50 [nM] | Compound
18 | 37 | O=C(O)c1ccc(NC(=O)c2ccc(C(F)(F)F)cc2Oc2ccc(OC(F)(F)F)cc2)cc1 [Compound 7, 4-(2-(4-(trifluoromethoxy)phenoxy)-4-(trifluoromethyl)benzamido)benzoic acid]
19 | 34 | O=C(O)c1ccc(NC(=O)c2cc(Cl)c(Cl)cc2Oc2ccc(F)cc2)cn1 [Compound 30, 5-(4,5-dichloro-2-(4-fluorophenoxy)benzamido)picolinic acid]
20 | 33 | O=C(O)c1ccc(NC(=O)c2cc(Cl)c(Cl)cc2Oc2ccc(F)cc2Cl)cc1 [Compound 23, 4-(4,5-dichloro-2-(2-chloro-4-fluorophenoxy)benzamido)benzoic acid]
21 | 32 | O=C(O)c1ccc(NC(=O)c2ccc(C(F)(F)C(F)(F)F)cc2Oc2ccc(F)cc2F)cc1 [Compound 2, 4-(2-(2,4-difluorophenoxy)-4-(perfluoroethyl)benzamido)benzoic acid]
22 | 27 | COc1ccc(Oc2cc(Cl)c(Cl)cc2C(=O)Nc2ccc(C(=O)O)cc2)c(OC)c1 [Compound 21, 4-(4,5-dichloro-2-(2,4-dimethoxyphenoxy)benzamido)benzoic acid]
23 | 24 | Cc1cc(Cl)ccc1Oc1cc(Cl)c(Cl)cc1C(=O)Nc1ccc(C(=O)O)cc1 [Compound 20, 4-(4,5-dichloro-2-(4-chloro-2-methylphenoxy)benzamido)benzoic acid]
24 | 24 | O=C(O)c1ccc(NC(=O)c2cc(Cl)c(Cl)cc2Oc2ccc(OC(F)(F)F)cc2)cc1 [Compound 26, 4-(4,5-dichloro-2-(4-(trifluoromethoxy)phenoxy)benzamido)benzoic acid]
25 | 22 | Cc1cc(F)ccc1Oc1cc(C(F)(F)C(F)(F)F)ccc1C(=O)Nc1ccc(C(=O)O)cc1 [Compound 3, 4-(2-(4-fluoro-2-methylphenoxy)-4-(perfluoroethyl)benzamido)benzoic acid]
26 | 20 | COc1cc(F)ccc1Oc1cc(C(F)(F)C(F)(F)F)ccc1C(=O)Nc1ccc(C(=O)O)cc1 [Compound 27, 4-(2-(4-fluoro-2-methoxyphenoxy)-4-(perfluoroethyl)benzamido)benzoic acid]
27 | 17 | O=C(O)c1ccc(NC(=O)c2ccc(C(F)(F)C(F)(F)F)cc2Oc2ccc(F)cc2Cl)cc1 [Compound 1, 4-(2-(2-chloro-4-fluorophenoxy)-4-(perfluoroethyl)benzamido)benzoic acid]
28 | 15 | Cc1cc(F)ccc1Oc1cc(Cl)c(Cl)cc1C(=O)Nc1ccc(C(=O)O)cc1 [Compound 14, 4-(4,5-dichloro-2-(4-fluoro-2-methylphenoxy)benzamido)benzoic acid]
29 | 12 | 4-(4,5-dichloro-2-(4-fluoro-2-methoxyphenoxy)benzamido)picolinic acid [Compound 76]
30 | 11 | COc1cc(F)ccc1Oc1cc(Cl)c(Cl)cc1C(=O)Nc1ccc(C(=O)O)cc1 [Compound 12, 4-(4,5-dichloro-2-(4-fluoro-2-methoxyphenoxy)benzamido)benzoic acid]
31 | 11 | COc1cc(Cl)ccc1Oc1cc(Cl)c(Cl)cc1C(=O)Nc1ccc(C(=O)O)cc1 [Compound 18, 4-(4,5-dichloro-2-(4-chloro-2-methoxyphenoxy)benzamido)benzoic acid]
32 | 11 | Cc1cc(F)ccc1Oc1cc(Cl)c(Cl)cc1C(=O)Nc1ccc(C(=O)O)nc1 [Compound 32, 5-(4,5-dichloro-2-(4-fluoro-2-methylphenoxy)benzamido)picolinic acid]
